Measured values: patent US20090291999A1, “Agent Exhibiting a Neurotropic, Neuromodulator, Cerebrovascular and Anti-Stroke Activity” (AKHAPKINA, Valentina Ivanovna, priority 2006, published 2009)
Marks after values point to notes of the source that are not given here.

Assays:
Toxicity (LD30) = details: in vivo
[1] = system: rats with hemorrhagic stroke (intracerebral post-traumatic hematoma); test: Hemorrhagic stroke model: open-field orientation-and-exploratory behavior; details: for Exploration of holes / Horizontal motion activity / Total index / Vertical motion activity: HS + Phenotropil
Description: (§1) Experiments have been conducted on white outbred male rats having weights from 200 to 250 grams. The rats have been held in vivarium conditions with free access to meals and water, under the natural change of days and nights. For the purpose of generating hemorrhagic stroke (HS) in rats narcotized with chloral hydrate (400 mg/Kg) stereotaxic craniotomy was conducted and then brain tissue in the capsula interna area was destructed with a mandarin knife, and blood (0.02 to 0.03 mL) taken under a rat tongue was injected into the place of destruction. Thus, local autohemorrhagic bilateral stroke was generated in the capsula interna area (diameter 2 mm, depth 3 mm) without damaging the above-located brain formations and neocortex. Falsely operated animals and animals with HS fed with a saline were used as the control animals. Intragastric administration of Phenotropil at a dose of 100 mg/Kg was performed with the use of a special tube in 5 hours after the operation and then daily for 7 days at the time of the day±3 minutes.
(§2) The Phenotropil influence was evaluated for survivability of the animals, for the neurologic deficit level on the McGrow stroke-index scale in the modification of I. V. Gannushkina (1977) and in the Rotarod test, for muscular tonus maintenance in the test of chinning up on a horizontal bar, for orientation and exploration behavior in the open-field test. Study of cognitive functions was conducted on a standard unit for conditioned reflex of passive avoidance (CRPA). A test for CRPA repetition (for maintenance of a memory trail) was conducted in 24 hours after training as well as on the 3rd, 7th and 14th days after the operation. The latent time of the first entering in a dark chamber was registered when the burrow reflex maintenance was evaluated.

[2] = Metabolism and excretion in the organism; details: in vivo
[3] = system: rats with hemorrhagic stroke (intracerebral post-traumatic hematoma); test: Hemorrhagic stroke model: burrow reflex; details: HS rats, one-time administration; 1 day after operation
Description: (§3) Experiments have been conducted on white outbred male rats having weights from 200 to 250 grams. The rats have been held in vivarium conditions with free access to meals and water, under the natural change of days and nights. For the purpose of generating hemorrhagic stroke (HS) in rats narcotized with chloral hydrate (400 mg/Kg) stereotaxic craniotomy was conducted and then brain tissue in the capsula interna area was destructed with a mandarin knife, and blood (0.02 to 0.03 mL) taken under a rat tongue was injected into the place of destruction. Thus, local autohemorrhagic bilateral stroke was generated in the capsula interna area (diameter 2 mm, depth 3 mm) without damaging the above-located brain formations and neocortex. Falsely operated animals and animals with HS fed with a saline were used as the control animals. […]
The Phenotropil influence was evaluated for survivability of the animals, for the neurologic deficit level on the McGrow stroke-index scale in the modification of I. V. Gannushkina (1977) and in the Rotarod test, for muscular tonus maintenance in the test of chinning up on a horizontal bar, for orientation and exploration behavior in the open-field test. […] The latent time of the first entering in a dark chamber was registered when the burrow reflex maintenance was evaluated. […]

[4] = system: rats with hemorrhagic stroke (intracerebral post-traumatic hematoma); test: Hemorrhagic stroke model: survivability of animals
Description: as §3
The Phenotropil influence was evaluated for survivability of the animals, for the neurologic deficit level on the McGrow stroke-index scale in the modification of I. V. Gannushkina (1977) and in the Rotarod test, for muscular tonus maintenance in the test of chinning up on a horizontal bar, for orientation and exploration behavior in the open-field test. […] The latent time of the first entering in a dark chamber was registered when the burrow reflex maintenance was evaluated.

[5] = system: rats with hemorrhagic stroke (intracerebral post-traumatic hematoma); test: Hemorrhagic stroke model: neurologic deficit on McGrow's scale; details: HS rats, 100 mg/Kg internally; 1 day after operation
Description: as §1, §2

[6] = system: rats with hemorrhagic stroke (intracerebral post-traumatic hematoma); test: Hemorrhagic stroke model: conditioned reflex of passive avoidance (CRPA); details: for Latent time of entering into a dark chamber / Number of rats which did not entered a dark chamber: HS rats, 100 mg/Kg
Description: as §1, §2

[7] = repetition of the CRPA in 3 days
[8] = repetition of the CRPA in 7 days
[9] = repetition of the CRPA in 14 days

NC(=O)CN1CC(c2ccccc2)CC1=O (centres unmarked) [Phenotropil, N-carbomoyl-methyl-4-phenyl-2-pyrrolidon]
LD30 (Toxicity (LD30)): 800 mg/kg | Exploration of holes ([1]; 1st day after operation): 1.3 ± 0.5 | Horizontal motion activity ([1]; 1st day after operation): 8.8 ± 3.5 | Total index ([1]; 1st day after operation): 14.5 ± 5.5 | Vertical motion activity ([1]; 1st day after operation): 4.4 ± 2.1 | Exploration of holes ([1]; 3rd day after operation): 1.9 ± 0.7 | Horizontal motion activity ([1]; 3rd day after operation): 15.2 ± 5.4 | Total index ([1]; 3rd day after operation): 21.6 ± 6.1 | Vertical motion activity ([1]; 3rd day after operation): 4.5 ± 1.5 | Exploration of holes ([1]; 7th day after operation): 4.6 ± 1.3 | Horizontal motion activity ([1]; 7th day after operation): 20.9 ± 4.1 | Total index ([1]; 7th day after operation): 36.4 ± 5.6 | Vertical motion activity ([1]; 7th day after operation): 10.9 ± 3.2 | Exploration of holes ([1]; 14th day after operation): 3.0 ± 0.7 | Horizontal motion activity ([1]; 14th day after operation): 12.2 ± 2.8 | Total index ([1]; 14th day after operation): 22.1 ± 3.5 | Vertical motion activity ([1]; 14th day after operation): 6.9 ± 1.9 | Increase of total index of motion behavior compared to rats of the HS group ([1]; registered in 7 days): 2.7 times | Metabolism in the organism [2]: not metabolized in the organism and goes out of it in the unchanged form | Latent time of entering into a dark chamber during training in the burrow reflex [3]: 30.6 ± 8.8 | Effect on death of the animals ([4]; 100 mg/Kg once a day for 7 days, 14 days of observation): completely prevented death of the animals | Cases in which death of animals was prevented ([4]; hemorrhagic stroke, 100 mg/Kg): 100% | Number of animals with flabbiness, slowness of motions [5]: 50% | Number of animals with paresis of 1-4 limbs [5]: 30% | Number of animals with weakness of limbs [5]: 40* % | Increase of the latent time of entering the dark chamber in comparison to the HS-group ([6]; 100 mg/Kg one-time administration 5 hours after operation, CRPA one day after training): 48% | Increase of the number of animals with maintained memory in comparison to the HS-group ([6]; 100 mg/Kg one-time administration 5 hours after operation, after one day): 60% | Latent time of entering into a dark chamber ([6]; repetition of the CRPA in 24 hours after training): 101.1 ± 24.2 s | Number of rats which did not entered a dark chamber ([6]; repetition of the CRPA in 24 hours after training, 100 mg/kg): 40% | Latent time of entering into a dark chamber [6, 7]: 98.3 ± 18.7 s | Number of rats which did not entered a dark chamber [6, 7]: 40** % | Latent time of entering into a dark chamber [6, 8]: 75.2 ± 24.1 s | Number of rats which did not entered a dark chamber [6, 8]: 30** % | Latent time of entering into a dark chamber [6, 9]: 83.2 ± 26.7 s | Number of rats which did not entered a dark chamber [6, 9]: 40** %
